{
  "source": "paper PMC13250552",
  "about": "(Proceedings of the National Academy of Sciences of the …, 2026)",
  "key": {"SiHa cells [1]": {"system": "SiHa cells", "type": "cell-based", "conditions": "24 hours"}, "RPE-1 cells": {"system": "RPE-1 cells", "type": "cell-based", "conditions": "p53 wild-type, HPV-negative"}, "SiHa-C51S cells": {"system": "SiHa-C51S cells", "type": "cell-based", "conditions": "24 hours"}, "UM-SCC-104": {"system": "UM-SCC-104", "assay": "Immunoblot of p53 and p21 in UM-SCC-104 cells", "type": "cell-based, human", "conditions": "24 hours"}, "SiHa cells [2]": {"system": "SiHa cells", "assay": "Senescence SA-β-gal assay, SiHa", "type": "cell-based, human", "conditions": "48 h, KTI-240 3 μM, etoposide 2 μM"}, "C51S cells": {"system": "C51S cells", "type": "cell-based", "conditions": "48 h, KTI-240 3 μM, etoposide 2 μM"}},
  "data": [
    {"smiles": "COc1cc([C@@H]2c3cc4c(cc3[C@@H](O[C@@H]3O[C@@H]5CO[C@@H](C)O[C@H]5[C@H](O)[C@H]3O)[C@H]3COC(=O)[C@H]23)OCO4)cc(OC)c1O", "note": "[etoposide]", "values": [
      {"measurement": "p53 protein levels (Western blot)", "setting": "SiHa cells [1]", "value": "induced p53 in both cell lines"},
      {"measurement": "p53 protein levels (Western blot)", "setting": "RPE-1 cells", "value": "induced p53 in both cell lines"},
      {"measurement": "p53 protein levels (Western blot)", "setting": "SiHa-C51S cells", "value": "etoposide did"},
      {"measurement": "p53 protein (immunoblot)", "setting": "UM-SCC-104", "value": "did not induce p53"},
      {"measurement": "SA-β-gal senescence marker", "setting": "SiHa cells [2]", "value": "induced"},
      {"measurement": "SA-β-gal senescence marker", "setting": "C51S cells", "value": "induced"}
    ]}
  ]
}
